ChEMBL document CHEMBL5385942, “C3-Symmetric ligands in drug design: An overview of the challenges and opportunities ahead” (Bioorg Med Chem Lett, 2024)
Calls of active or inactive are those of the source. The rule behind the calls is not given here.

What was measured:
Human alphaherpesvirus 1 = assay: Antiviral activity against HSV-1 infected in African green monkey Vero cells by plaque reduction assay; type: functional, organism-based; conditions: Human alphaherpesvirus 1, Vero
Quadruplex DNA [1] = assay: Stabilization of human G4 quadruplex telomeric22 DNA assessed as change in temperature at 2 uM by FRET assay; type: nucleic-acid assay
Quadruplex DNA [2] = assay: Stabilization of human G4 quadruplex telomeric22 DNA assessed as change in temperature at 1 uM by FRET assay; type: nucleic-acid assay
dsDNA = assay: Stabilization of human duplex DNA assessed as change in temperature at 1 uM by FRET assay; type: nucleic-acid assay
Staphylococcus aureus = assay: Antimicrobial activity against Staphylococcus aureus MTCC 96 assessed as zone of inhibition by […]; type: functional
Micrococcus luteus = assay: Antimicrobial activity against Micrococcus luteus ATCC 9341 assessed as zone of inhibition by […]; type: functional
Bacillus subtilis = assay: Antimicrobial activity against Bacillus subtilis MTCC 441 assessed as zone of inhibition by […]; type: functional
Quadruplex DNA [3] = assay: Stabilization of human G4 quadruplex telomeric22 DNA assessed as change in temperature at 10 uM by FRET assay; type: nucleic-acid assay
Quadruplex DNA [4] = assay: Stabilization of human G4 quadruplex telomeric22 DNA assessed as change in temperature at 5 uM by FRET assay; type: nucleic-acid assay

EC50 (Human alphaherpesvirus 1) [µM] | ΔTm (Quadruplex DNA [2]) [°C] | ΔTm (dsDNA) [°C] | SMILES | further results
> 100 |  |  | COc1ccc(CNc2nc(NCc3ccc(OC)cc3)nc(NCc3ccc(OC)cc3)n2)cc1 | 
 | 1 | 0 | CNCC(=O)Nc1ccc(-c2cn(Cc3cc(Cn4cc(-c5ccc(NC(=O)CNC)cc5)nn4)cc(Cn4cc(-c5ccc(NC(=O)CNC)cc5)nn4)c3)nn2)cc1 | ΔTm (Quadruplex DNA [1]): 1 °C
> 100 |  |  | COc1ccc(CNc2nc(NCc3ccc(OC)cc3OC)nc(NCc3ccc(OC)cc3OC)n2)c(OC)c1 | 
 | 2.6 |  | c1ccc2c(c1)c1cc(-c3cc(-c4ccc5c(c4)c4ccccc4n5CCCN4CCCC4)cc(-c4ccc5c(c4)c4ccccc4n5CCCN4CCCC4)c3)ccc1n2CCCN1CCCC1 | ΔTm (Quadruplex DNA [3]): 17.5 °C; ΔTm (Quadruplex DNA [4]): 14.3 °C
11 |  |  | Clc1ccc(CNc2nc(NCc3ccc(Cl)cc3)nc(NCc3ccc(Cl)cc3)n2)cc1 | 
38.7 |  |  | Cc1ccc(CNc2nc(NCc3ccc(C)cc3)nc(NCc3ccc(C)cc3)n2)cc1 | 
 | 1.9 |  | c1ccc2c(c1)c1cc(-c3cc(-c4ccc5c(c4)c4ccccc4n5CCN4CCCC4)cc(-c4ccc5c(c4)c4ccccc4n5CCN4CCCC4)c3)ccc1n2CCN1CCCC1 | ΔTm (Quadruplex DNA [3]): 13 °C; ΔTm (Quadruplex DNA [4]): 10 °C
 | 6 |  | c1ccc2c(c1)c1cc(-c3cc(-c4ccc5c(c4)c4ccccc4n5CCCN4CCCCC4)cc(-c4ccc5c(c4)c4ccccc4n5CCCN4CCCCC4)c3)ccc1n2CCCN1CCCCC1 | ΔTm (Quadruplex DNA [3]): 19.9 °C; ΔTm (Quadruplex DNA [4]): 17 °C
 | 1 | 0 | CCCCCNCCC(=O)Nc1ccc(-c2cn(Cc3cc(Cn4cc(-c5ccc(NC(=O)CCNCCCCC)cc5)nn4)cc(Cn4cc(-c5ccc(NC(=O)CCNCCCCC)cc5)nn4)c3)nn2)cc1 | ΔTm (Quadruplex DNA [1]): 7 °C
7.4 |  |  | FC(F)(F)c1ccc(CNc2nc(NCc3ccc(C(F)(F)F)cc3)nc(NCc3ccc(C(F)(F)F)cc3)n2)cc1 | 
 | 1.1 |  | c1ccc2c(c1)[nH]c1ccc(-c3cc(-c4ccc5[nH]c6ccccc6c5c4)cc(-c4ccc5[nH]c6ccccc6c5c4)c3)cc12 | ΔTm (Quadruplex DNA [3]): 2.6 °C; ΔTm (Quadruplex DNA [4]): 4 °C
 |  | 0 | CNCCC(=O)Nc1ccc(-c2cn(Cc3cc(Cn4cc(-c5ccc(NC(=O)CCNC)cc5)nn4)cc(Cn4cc(-c5ccc(NC(=O)CCNC)cc5)nn4)c3)nn2)cc1 | 
28 |  |  | COc1ccc(CNc2nc(NCc3ccc(OC)c(OC)c3OC)nc(NCc3ccc(OC)c(OC)c3OC)n2)c(OC)c1OC | 

More lines, now with the values behind:

SMILES | EC50 (Human alphaherpesvirus 1) [µM] | ΔTm (Quadruplex DNA [2]) [°C] | ΔTm (dsDNA) [°C] | further results
Cc1ccc(C2CC(c3ccc(Oc4nc(Oc5ccc(C6=NN(C(N)=S)C(c7ccc(C)cc7)C6)cc5)nc(Oc5ccc(C6=NN(C(N)=S)C(c7ccc(C)cc7)C6)cc5)n4)cc3)=NN2C(N)=S)cc1 (stereo not given) |  |  |  | inhibition zone (IZ) (Staphylococcus aureus): 11 mm; inhibition zone (IZ) (Micrococcus luteus): 20 mm; inhibition zone (IZ) (Bacillus subtilis): 9 mm
CC(C)CNc1nc(NCC(C)C)nc(NCC(C)C)n1 | 29.8 |  |  | 
CCCOCCNCCCC(=O)Nc1ccc(-c2cn(Cc3cc(Cn4cc(-c5ccc(NC(=O)CCCNCCOCCC)cc5)nn4)cc(Cn4cc(-c5ccc(NC(=O)CCCNCCOCCC)cc5)nn4)c3)nn2)cc1 |  | 0 | 0 | ΔTm (Quadruplex DNA [1]): 0 °C
CC(C)(C)Oc1nc(N)nc(OC(C)(C)C)n1 | > 100 |  |  | 
CNCCCC(=O)Nc1ccc(-c2cn(Cc3cc(Cn4cc(-c5ccc(NC(=O)CCCNC)cc5)nn4)cc(Cn4cc(-c5ccc(NC(=O)CCCNC)cc5)nn4)c3)nn2)cc1 |  | 2 | 0 | ΔTm (Quadruplex DNA [1]): 7 °C
CCCCCCNCC(=O)Nc1ccc(-c2cn(Cc3cc(Cn4cc(-c5ccc(NC(=O)CNCCCCCC)cc5)nn4)cc(Cn4cc(-c5ccc(NC(=O)CNCCCCCC)cc5)nn4)c3)nn2)cc1 |  | 2 | 0 | ΔTm (Quadruplex DNA [1]): 2 °C
CCNCCC(=O)Nc1ccc(-c2cn(Cc3cc(Cn4cc(-c5ccc(NC(=O)CCNCC)cc5)nn4)cc(Cn4cc(-c5ccc(NC(=O)CCNCC)cc5)nn4)c3)nn2)cc1 |  |  | 0 | 
c1cc2c(cc1CNc1nc(NCc3ccc4c(c3)OCO4)nc(NCc3ccc4c(c3)OCO4)n1)OCO2 | 5.4 |  |  | 
CCCCCNCCCC(=O)Nc1ccc(-c2cn(Cc3cc(Cn4cc(-c5ccc(NC(=O)CCCNCCCCC)cc5)nn4)cc(Cn4cc(-c5ccc(NC(=O)CCCNCCCCC)cc5)nn4)c3)nn2)cc1 |  | 2 | 0 | ΔTm (Quadruplex DNA [1]): 5 °C
c1ccc2c(c1)c1cc(-c3cc(-c4ccc5c(c4)c4ccccc4n5CCN4CCOCC4)cc(-c4ccc5c(c4)c4ccccc4n5CCN4CCOCC4)c3)ccc1n2CCN1CCOCC1 |  |  |  | Activity (Quadruplex DNA [3]): inactive; Activity (Quadruplex DNA [2]): inactive; Activity (Quadruplex DNA [4]): inactive
CCCOCCNCCC(=O)Nc1ccc(-c2cn(Cc3cc(Cn4cc(-c5ccc(NC(=O)CCNCCOCCC)cc5)nn4)cc(Cn4cc(-c5ccc(NC(=O)CCNCCOCCC)cc5)nn4)c3)nn2)cc1 |  | 0 | 0 | ΔTm (Quadruplex DNA [1]): 0 °C
